Reference: patent publication US10245261B2, “Substituted indol-5-ol derivatives and their therapeutic applications” (NantBioScience, Inc., priority 2013, dated 2019)

Assays:
Assay in all cases: KinaseProfiler kinase assay
Type in all cases: biochemical
Lyn(h) = Lyn(h) (Homo sapiens, UniProt P07948)
How it was run: (§1)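 Each enzyme was assayed radiometrically: 40 min room-temperature reaction with [γ-33P]ATP and 10 mM Mg acetate, acid-stopped, filtered, scintillation-counted.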

PKCα(h) = PKCα(h) (Homo sapiens, UniProt P17252)
How it was run: as §1

PTK5(h) = PTK5(h) (Homo sapiens, UniProt P42685)
How it was run: as §1

Tie2 (h) = Tie2 (h) (Homo sapiens, UniProt Q02763)
How it was run: as §1

Rsk4(h) = Rsk4(h) (Homo sapiens, UniProt Q9UK32)
How it was run: as §1

PKCδ(h) = PKCδ(h) (Homo sapiens, UniProt Q05655)
How it was run: as §1

PAK4(h) = PAK4(h) (Homo sapiens, UniProt O96013)
How it was run: as §1

SRPK1(h) = SRPK1(h) (Homo sapiens, UniProt Q96SB4)
How it was run: as §1

MAPKAP-K2(h) = MAPKAP-K2(h) (Homo sapiens, UniProt P49137)
Sequence of MAPKAP-K2(h) (P49137 whole entry): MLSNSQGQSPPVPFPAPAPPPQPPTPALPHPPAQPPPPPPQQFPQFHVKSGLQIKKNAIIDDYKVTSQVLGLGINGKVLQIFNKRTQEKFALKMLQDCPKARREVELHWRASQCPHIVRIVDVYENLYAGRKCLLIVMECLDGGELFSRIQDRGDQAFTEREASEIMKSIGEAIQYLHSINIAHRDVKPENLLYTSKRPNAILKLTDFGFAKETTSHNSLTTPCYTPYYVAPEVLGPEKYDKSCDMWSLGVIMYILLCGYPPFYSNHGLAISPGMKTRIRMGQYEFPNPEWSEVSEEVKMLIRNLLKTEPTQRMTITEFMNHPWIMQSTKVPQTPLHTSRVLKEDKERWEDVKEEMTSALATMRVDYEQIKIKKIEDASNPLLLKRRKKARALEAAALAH
How it was run: as §1

PKBβ(h) = PKBβ(h) (Homo sapiens, UniProt P31751)
Sequence of PKBβ(h) (P31751 whole entry): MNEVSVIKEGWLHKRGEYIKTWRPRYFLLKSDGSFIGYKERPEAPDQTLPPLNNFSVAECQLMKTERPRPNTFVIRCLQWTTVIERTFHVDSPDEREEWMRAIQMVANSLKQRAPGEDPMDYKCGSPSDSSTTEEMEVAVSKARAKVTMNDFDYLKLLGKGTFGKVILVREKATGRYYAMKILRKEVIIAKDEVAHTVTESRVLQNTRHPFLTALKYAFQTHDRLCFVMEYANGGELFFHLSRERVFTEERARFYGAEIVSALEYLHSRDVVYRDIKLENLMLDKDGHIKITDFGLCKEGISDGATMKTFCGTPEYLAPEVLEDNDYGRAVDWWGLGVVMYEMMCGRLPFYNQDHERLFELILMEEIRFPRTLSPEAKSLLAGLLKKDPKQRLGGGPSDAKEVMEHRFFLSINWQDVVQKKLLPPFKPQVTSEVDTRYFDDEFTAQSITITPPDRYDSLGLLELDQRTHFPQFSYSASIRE
How it was run: as §1

SRPK2(h) = SRPK2(h) (Homo sapiens, UniProt P78362)
How it was run: as §1

ROCK-I(h) = ROCK-I(h) (Homo sapiens, UniProt Q13464)
How it was run: as §1

Mnk2(h) = Mnk2(h) (Homo sapiens, UniProt Q9HBH9)
How it was run: as §1

Syk(h) = Syk(h) (Homo sapiens, UniProt P43405)
How it was run: as §1

Itk(h) = Itk(h) (Homo sapiens, UniProt Q08881)
How it was run: as §1

PKCθ(h) = PKCθ(h) (Homo sapiens, UniProt Q04759)
How it was run: as §1

SAPK2a(h) = SAPK2a(h) (Homo sapiens, UniProt Q16539)
How it was run: as §1

MST3(h) = MST3(h) (Homo sapiens, UniProt Q9Y6E0)
Sequence of MST3(h) (Q9Y6E0 whole entry): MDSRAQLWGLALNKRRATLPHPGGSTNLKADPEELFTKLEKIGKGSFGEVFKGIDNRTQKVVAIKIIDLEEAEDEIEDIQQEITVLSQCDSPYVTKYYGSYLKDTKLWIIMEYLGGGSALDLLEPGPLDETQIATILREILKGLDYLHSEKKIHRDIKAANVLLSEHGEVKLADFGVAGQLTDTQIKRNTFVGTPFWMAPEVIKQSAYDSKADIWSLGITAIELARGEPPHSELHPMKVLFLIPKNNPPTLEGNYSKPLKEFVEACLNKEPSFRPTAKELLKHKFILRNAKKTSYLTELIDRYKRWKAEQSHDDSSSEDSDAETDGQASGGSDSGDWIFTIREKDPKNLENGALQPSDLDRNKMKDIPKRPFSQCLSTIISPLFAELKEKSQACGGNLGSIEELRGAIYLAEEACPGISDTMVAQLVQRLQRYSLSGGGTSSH
How it was run: as §1

DCAMKL2(h) = DCAMKL2(h) (Homo sapiens, UniProt Q8N568)
How it was run: as §1

IRR(h) = IRR(h) (Homo sapiens, UniProt P14616)
How it was run: as §1

PAK5(h) = PAK5(h) (Homo sapiens, UniProt Q9P286)
How it was run: as §1

Ros(h) = Ros(h) (Homo sapiens, UniProt P08922)
Sequence of Ros(h) (P08922 28-2347): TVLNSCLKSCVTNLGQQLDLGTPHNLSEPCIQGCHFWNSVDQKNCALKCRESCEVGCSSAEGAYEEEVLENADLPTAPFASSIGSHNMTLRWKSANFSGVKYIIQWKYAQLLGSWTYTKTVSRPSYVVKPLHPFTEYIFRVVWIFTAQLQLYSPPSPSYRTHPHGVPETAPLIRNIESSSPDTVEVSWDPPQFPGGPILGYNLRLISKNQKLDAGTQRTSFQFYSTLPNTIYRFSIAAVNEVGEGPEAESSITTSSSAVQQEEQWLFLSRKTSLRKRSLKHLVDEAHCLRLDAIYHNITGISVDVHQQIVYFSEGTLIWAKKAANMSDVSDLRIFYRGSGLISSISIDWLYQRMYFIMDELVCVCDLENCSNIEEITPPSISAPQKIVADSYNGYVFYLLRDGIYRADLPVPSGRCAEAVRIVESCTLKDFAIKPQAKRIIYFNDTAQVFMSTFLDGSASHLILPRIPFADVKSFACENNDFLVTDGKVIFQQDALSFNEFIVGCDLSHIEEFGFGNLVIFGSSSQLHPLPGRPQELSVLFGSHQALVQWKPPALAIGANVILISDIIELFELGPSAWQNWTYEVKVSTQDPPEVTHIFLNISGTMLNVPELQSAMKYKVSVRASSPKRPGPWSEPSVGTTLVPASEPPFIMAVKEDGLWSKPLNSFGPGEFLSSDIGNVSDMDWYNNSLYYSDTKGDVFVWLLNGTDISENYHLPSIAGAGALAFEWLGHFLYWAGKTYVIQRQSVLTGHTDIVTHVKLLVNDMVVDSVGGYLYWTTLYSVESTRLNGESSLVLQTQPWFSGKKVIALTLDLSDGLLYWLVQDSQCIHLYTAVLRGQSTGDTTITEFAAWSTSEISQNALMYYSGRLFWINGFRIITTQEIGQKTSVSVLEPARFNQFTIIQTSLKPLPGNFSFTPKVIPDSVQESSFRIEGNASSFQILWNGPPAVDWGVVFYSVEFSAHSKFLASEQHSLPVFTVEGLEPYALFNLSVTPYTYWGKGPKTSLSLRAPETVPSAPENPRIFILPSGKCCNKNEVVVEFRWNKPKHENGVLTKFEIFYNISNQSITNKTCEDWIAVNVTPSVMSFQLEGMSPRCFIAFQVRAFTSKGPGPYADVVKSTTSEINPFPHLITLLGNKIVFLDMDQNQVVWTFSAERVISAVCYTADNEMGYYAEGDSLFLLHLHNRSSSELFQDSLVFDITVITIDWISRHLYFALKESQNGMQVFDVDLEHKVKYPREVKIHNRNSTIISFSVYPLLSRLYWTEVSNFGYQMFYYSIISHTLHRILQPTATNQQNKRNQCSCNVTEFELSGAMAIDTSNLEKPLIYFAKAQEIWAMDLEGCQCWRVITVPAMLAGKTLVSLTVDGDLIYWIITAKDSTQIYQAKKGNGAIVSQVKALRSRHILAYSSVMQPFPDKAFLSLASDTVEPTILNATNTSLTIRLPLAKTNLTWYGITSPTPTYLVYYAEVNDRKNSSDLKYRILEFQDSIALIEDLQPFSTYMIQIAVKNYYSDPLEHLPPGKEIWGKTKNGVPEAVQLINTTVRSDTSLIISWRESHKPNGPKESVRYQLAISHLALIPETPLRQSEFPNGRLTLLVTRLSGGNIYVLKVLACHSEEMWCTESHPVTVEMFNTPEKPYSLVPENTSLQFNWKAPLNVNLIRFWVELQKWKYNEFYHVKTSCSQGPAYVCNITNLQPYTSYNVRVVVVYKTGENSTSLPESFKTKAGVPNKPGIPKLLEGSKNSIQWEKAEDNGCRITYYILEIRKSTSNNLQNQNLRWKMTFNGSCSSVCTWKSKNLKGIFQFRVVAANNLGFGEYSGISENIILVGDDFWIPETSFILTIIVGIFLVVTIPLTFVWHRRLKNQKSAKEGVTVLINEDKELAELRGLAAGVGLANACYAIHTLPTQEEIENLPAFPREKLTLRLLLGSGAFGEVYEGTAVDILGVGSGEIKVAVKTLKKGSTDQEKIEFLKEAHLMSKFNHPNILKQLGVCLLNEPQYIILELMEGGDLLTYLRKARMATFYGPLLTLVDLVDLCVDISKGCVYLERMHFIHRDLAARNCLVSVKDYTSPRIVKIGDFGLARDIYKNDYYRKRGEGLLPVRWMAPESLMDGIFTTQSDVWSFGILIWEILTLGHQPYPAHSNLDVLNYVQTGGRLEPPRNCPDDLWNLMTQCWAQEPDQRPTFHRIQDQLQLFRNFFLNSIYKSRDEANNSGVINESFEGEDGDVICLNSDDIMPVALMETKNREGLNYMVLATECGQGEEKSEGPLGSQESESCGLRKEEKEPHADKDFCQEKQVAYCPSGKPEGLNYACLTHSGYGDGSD
How it was run: as §1

LOK(h) = LOK(h) (Homo sapiens, UniProt O94804)
How it was run: as §1

NEK7(h) = NEK7(h) (Homo sapiens, UniProt Q8TDX7)
How it was run: as §1

CDK1/cyclinB(h) = CDK1/cyclinB(h) (Homo sapiens, UniProt P06493)
How it was run: as §1

PASK(h) = PASK(h) (Homo sapiens, UniProt Q96RG2)
How it was run: as §1

Fms(h) = Fms(h) (Homo sapiens, UniProt P07333)
How it was run: as §1

cKit(V654A)(h) = cKit(V654A)(h) (Homo sapiens, UniProt P10721, V654A)
How it was run: as §1

Yes(h) = Yes(h) (Homo sapiens, UniProt P07947)
How it was run: as §1

PKCη(h) = PKCη(h) (Homo sapiens, UniProt P24723)
Sequence of PKCη(h) (P24723 whole entry): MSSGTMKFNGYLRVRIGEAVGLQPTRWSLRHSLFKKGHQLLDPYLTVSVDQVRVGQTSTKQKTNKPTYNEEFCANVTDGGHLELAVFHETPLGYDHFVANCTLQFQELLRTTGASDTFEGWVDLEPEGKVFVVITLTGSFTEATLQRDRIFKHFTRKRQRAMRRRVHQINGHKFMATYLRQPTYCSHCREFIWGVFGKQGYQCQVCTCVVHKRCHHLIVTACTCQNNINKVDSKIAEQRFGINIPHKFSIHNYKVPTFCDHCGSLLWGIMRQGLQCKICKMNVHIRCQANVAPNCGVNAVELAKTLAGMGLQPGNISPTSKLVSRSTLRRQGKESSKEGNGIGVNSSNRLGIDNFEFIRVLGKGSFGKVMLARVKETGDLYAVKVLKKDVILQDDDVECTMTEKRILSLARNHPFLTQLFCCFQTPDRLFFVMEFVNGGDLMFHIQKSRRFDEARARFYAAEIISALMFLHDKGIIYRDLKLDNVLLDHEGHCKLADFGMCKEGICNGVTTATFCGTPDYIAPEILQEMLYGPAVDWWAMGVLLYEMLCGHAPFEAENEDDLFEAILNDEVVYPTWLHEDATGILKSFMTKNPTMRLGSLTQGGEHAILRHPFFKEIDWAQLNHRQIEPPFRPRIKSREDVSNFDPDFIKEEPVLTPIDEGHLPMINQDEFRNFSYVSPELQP
How it was run: as §1

PEK(h) = PEK(h) (Homo sapiens, UniProt Q9NZJ5)
How it was run: as §1

CDK6/cyclinD3(h) = CDK6/cyclinD3(h) (Homo sapiens, UniProt Q00534)
How it was run: as §1

SMILES | inhibition at 0.1 µM (Lyn(h)) | inhibition at 0.1 µM (PKCα(h)) | inhibition at 0.1 µM (PTK5(h)) | inhibition at 0.1 µM (Tie2 (h)) | inhibition at 0.1 µM (Rsk4(h)) | inhibition at 0.1 µM (PKCδ(h)) | inhibition at 0.1 µM (PAK4(h)) | inhibition at 0.1 µM (SRPK1(h)) | inhibition at 0.1 µM (MAPKAP-K2(h)) | inhibition at 0.1 µM (PKBβ(h)) | inhibition at 0.1 µM (SRPK2(h)) | inhibition at 0.1 µM (ROCK-I(h)) | inhibition at 0.1 µM (Mnk2(h)) | inhibition at 0.1 µM (Syk(h)) | inhibition at 0.1 µM (Itk(h)) | inhibition at 0.1 µM (PKCθ(h)) | inhibition at 0.1 µM (SAPK2a(h)) | inhibition at 0.1 µM (MST3(h)) | inhibition at 0.1 µM (DCAMKL2(h)) | inhibition at 0.1 µM (IRR(h)) | also measured
Cc1cc2c(F)c(Oc3nc(Nc4cc(C5CC5)[nH]n4)cc(N4CCN(C)CC4)n3)ccc2[nH]1 [Compound 10] | 100% | 4% | 72% | 100% | 36% | 5% | 29% | -11% | -7% | -35% | 6% | -15% | 1% | 25% | 31% | 21% | 10% | 85% | 16% | 91% | inhibition at 0.1 µM (PAK5(h)): 60%; inhibition at 0.1 µM (Ros(h)): 12%; inhibition at 0.1 µM (LOK(h)): 73%; inhibition at 0.1 µM (NEK7(h)): 8%; inhibition at 0.1 µM (CDK1/cyclinB(h)): 10%; inhibition at 0.1 µM (PASK(h)): 22%; inhibition at 0.1 µM (Fms(h)): 91%; inhibition at 0.1 µM (cKit(V654A)(h)): 35%; inhibition at 0.1 µM (Yes(h)): 99%; inhibition at 0.1 µM (PKCη(h)): -16%; inhibition at 0.1 µM (PEK(h)): -4%; inhibition at 0.1 µM (CDK6/cyclinD3(h)): -5%
Cc1cc2c(F)c(Oc3nc(Nc4cc(C5CC5)[nH]n4)cc(N4CCNCC4)n3)ccc2[nH]1 [Compound 11, N-(5-cyclopropyl-1H-pyrazol-3-yl)-2-((4-fluoro-2-methyl-1H-indol-5-yl)oxy)-6-(piperazin-1-yl)pyrimidin-4-amine] | 99% | -3% | 72% | 98% | 35% | 5% | 23% | -14% | -10% | -9% | 0% | -15% | -2% | 36% | 54% | -16% | -7% | 80% | 15% | 95% | inhibition at 0.1 µM (PAK5(h)): 68%; inhibition at 0.1 µM (Ros(h)): 71%; inhibition at 0.1 µM (LOK(h)): 86%; inhibition at 0.1 µM (NEK7(h)): -5%; inhibition at 0.1 µM (CDK1/cyclinB(h)): -1%; inhibition at 0.1 µM (PASK(h)): -17%; inhibition at 0.1 µM (Fms(h)): 95%; inhibition at 0.1 µM (cKit(V654A)(h)): 53%; inhibition at 0.1 µM (Yes(h)): 101%; inhibition at 0.1 µM (PKCη(h)): -7%; inhibition at 0.1 µM (PEK(h)): -8%; inhibition at 0.1 µM (CDK6/cyclinD3(h)): 11%
